Laboratory results from patent publication US20040157740A1, “Heterocyclyl phenyl benzyl ethers used as fungicides” (priority 2001, published 2004).

Assay: logP determination by HPLC (EEC Directive 79/831 Annexe V. A8, gradient method)
Assay type: physicochemical
Settings: pH 2; read-out: log P (pH 2)

Compound | chromatographic logP
CO/N=C(/C(=O)OC)c1ccccc1COc1ccc(-c2nnn(C)n2)cc1C [Example 1, methyl 2-[4-(2-methyltetrazol-5-yl)-2-methylphenoxy]methylphenylglyoxylate O-methyl oxime] | 3.08
CNC(=O)/C(=N/OC)c1ccccc1COc1ccc(-c2nnn(C)n2)cc1C [Example 2, N-methyl-2-[4-(2-methyltetrazol-5-yl)-2-methylphenoxy]methylphenylglyoxylamide O-methyl oxime] | 2.58
CCc1nc(-c2ccc(OCc3ccccc3/C(=N\OC)C(=O)OC)c(C)c2)no1 [Example 3, methyl 2-[4-(5-ethyl-1,2,4-oxadiazol-3-yl)-2-methylphenoxy]methylphenylglyoxylate O-methyl oxime] | 3.8
CCc1nc(-c2ccc(OCc3ccccc3/C(=N\OC)C(=O)NC)c(C)c2)no1 [Example 4, N-methyl-2-[4-(5-ethyl-1,2,4-oxadiazol-3-yl)-2-methylphenoxy]methylphenylglyoxylamide O-methyl oxime] | 3.24
CO/N=C(/C(=O)OC)c1ccccc1COc1ccc(-c2nc(C(F)(F)F)ns2)cc1C [Example 5, methyl 2-[4-(3-trifluoromethyl-1,2,4-thiadiazol-5-yl)-2-methylphenoxy]methylphenylglyoxylate O-methyl oxime] | 4.62
CNC(=O)/C(=N/OC)c1ccccc1COc1ccc(-c2nc(C(F)(F)F)ns2)cc1C [Example 6, N-methyl-2-[4-(3-trifluoromethyl-1,2,4-thiadiazol-5-yl)-2-methylphenoxy]methylphenylglyoxylamide O-methyl oxime] | 4.08
Cc1cc(-c2nnn(C)n2)ccc1O [Example III-1, 2-methyl-5-(3-methyl-4-hydroxyphenyl)tetrazole] | 1.45
CCc1nc(-c2ccc(O)c(C)c2)no1 [Example III-2, 5-ethyl-3-(3-methyl-4-hydroxyphenyl)-1,2,4-oxadiazole] | 2.08
Cc1cc(-c2nc(C(F)(F)F)ns2)ccc1O [Example III-3, 3-trifluoromethyl-5-(3-methyl-4-hydroxyphenyl)-1,2,4-thiadiazole] | 3.1
Cc1cc(-c2nnn(C(C)(C)C)n2)ccc1O [Example III-4] | 2.54
C#CCn1nnc(-c2ccc(O)c(C)c2)n1 [Example III-5] | 1.81
Cc1cc(-c2nnn(C(F)F)n2)ccc1O [Example III-7] | 2.18
Cc1cc(-c2nnnn2C(F)F)ccc1O [Example III-8] | 1.75
COc1ccc(-c2nnn(C(C)(C)C)n2)cc1C [Example V-3] | 3.78
CCc1nc(-c2ccc(OC)c(C)c2)no1 [Example V-8] | 3.19
Cc1cc(-c2nc(C(F)(F)F)ns2)ccc1OCc1ccc(Cl)cc1 [Example V-9, 3-trifluoromethyl-5-[3-methyl-4-(4-chlorobenzyloxy)phenyl]-1,2,4-thiadiazole] | 5.78
COc1ccc(/C(N)=N/O)cc1C [Example VII-I, 3-methyl-4-methoxybenzamideoxime] | 0.36

The next lines start with the values.

chromatographic logP | Compound
1.04 | Cc1cc(-c2nnnn2C)ccc1O [1-methyl-5-(3-methyl-4-hydroxyphenyl)tetrazole]
1.41 | C#CCn1nnnc1-c1ccc(O)c(C)c1 [Example III-6]
1.51 | COc1ccc(-c2nn[nH]n2)cc1C [Example V-1, 5-(3-methyl-4-methoxyphenyl)tetrazole]
2.38 | COc1ccc(-c2nnn(C)n2)cc1C [Example V-2, 2-methyl-5-(3-methyl-4-methoxyphenyl)tetrazole]
2.12 | C#CCn1nnnc1-c1ccc(OC)c(C)c1 [Example V-5]
3.24 | COc1ccc(-c2nnn(C(F)F)n2)cc1C [Example V-6]
2.51 | COc1ccc(-c2nnnn2C(F)F)cc1C [Example V-7]
2.75 | C#CCn1nnc(-c2ccc(OC)c(C)c2)n1 [Example V-44]
